Patent US20150140002A1, “USE OF A PCSK9 INHIBITOR TO TREAT […]” (Sanofi, priority 2013, published 2015)
Marks after values point to notes of the source that are not given here.

Columns and labels:
[1] = system: patients with genotype-confirmed hoFH; conditions: ezetimibe 10 mg/day added to maximal dose of statins; cited from earlier work
[2] = system: patients with primary hypercholesterolemia (heFH and non-FH) who are intolerant to statins; experiment: Example 3: randomized double-blind trial mAb316P versus ezetimibe (atorvastatin calibrator arm), lipid parameters; assay type: in vivo, human; conditions: for patients who reached LDL-C goal at week 24: goal <70 mg/dL very high risk, <100 mg/dL moderate and high risk; for LS mean LDL-C value at week 24: in vivo; for change in LDL-C level from baseline: week 24
Description: The present study was a randomized, double-blind, double-dummy, active-controlled, parallel-group, multi-national, multi-center study in patients with primary hypercholesterolemia and moderate, high, or very high CV risk who are intolerant to statins. The study design is illustrated in FIG. 7.
Primary Efficacy Endpoint: The primary efficacy endpoint was the percent change in calculated LDL-C from baseline to week 24, which was defined as: 100× (calculated LDL-C value at week 24—calculated LDL-C value at baseline)/calculated LDL-C value at baseline. A baseline LDL-C value was needed for each patient as the baseline calculated LDL-C value was the last LDL-C level obtained before the first double-blind study drug injection.
Total-C, HDL-C, TG, ApoB, ApoA-1, and Lp(a) were directly measured by a central laboratory as per a predetermined schedule. Low-density lipoprotein cholesterol was calculated using the Friedewald formula at all visits (except week −15 and the follow-up visit). If TG values exceeded 400 mg/dL (4.52 mmol/L), then the central lab measured (via the beta quantification method) the LDL-C rather than calculate it. Non-HDL-C was calculated by subtracting HDL-C from the total-C. Ratio ApoB/ApoA-1 was calculated.
The double-blind period efficacy endpoint analysis results in the order of statistical hierarchical testing as specified in the above protocol (with multiple testing controlled at the 0.05 significance level) is set forth in Table 12. Primary and key secondary efficacy analyses were performed comparing mAb316P-treated patients to ezetimibe-treated patients. For clarification, the ITT analysis is defined for patients in the ITT population and includes all endpoint assessments in an analysis window, regardless of study treatment dosing status (i.e. includes post-treatment assessments). The on-treatment analysis is defined for patients in the mITT population and includes all endpoint assessments from the first double-blind study drug (capsule or injection, whichever comes first) up to 21 days after the last double-blind study drug injection, or 3 days after the last capsule intake, whichever came first (i.e. includes assessments in the efficacy treatment period). Note: A result is statistically significant if the p-value is s 0.05, in the order of the hierarchical testing.

[3] = system: healthy subjects and hypercholesterolemic patients (familial or non-familial); experiment: Phase 1 studies of mAb316P (safety, tolerability, PK/PD; IV or SC); assay type: in vivo, human
Method: Two studies were single dose administration (one study with IV administration of doses from 0.3 mg to 12 mg/kg and another study with SC administration of doses from 50 mg to 250 mg) conducted in healthy subjects with LDL-C>100 mg/dL for whom statin therapy was not indicated. The third study was conducted in hypercholesterolemic patients (familial or non-familial) with single to multiple SC administration of 50 mg, 100 mg, 150 mg and 200 mg either as add-on to stable doses of atorvastatin from 10 mg to 40 mg/day or as monotherapy.
No pattern of adverse events (AEs) related to the drug was identified. […] The magnitude and duration of these reductions were positively related to the dose administered. It should also be noted that in the third study, results were similar in the familial and non-familial hypercholesterolemic patients.

[4] = Example 2: serum mAb316P concentration (ELISA); assay type: in vivo, human
Method: If needed, total and free PCSK9 concentrations could be measured from the same PK sample.
To collect information on the absorption phase, an optional PK sample was collected at 5 days (±2) after the week 22 IMP injection or at 5 days (±2) after any subsequent IMP injection while the subject was on treatment.
The lower limit of quantification (LLQ) for this assay is 0.078 μg/mL.

[5] = system: patient population with non-familial hypercholesterolemia or with heterozygous familial hypercholesterolemia; experiment: Phase 2 studies / earlier clinical data of mAb316P; assay type: in vivo, human
Description: The efficacy on LDL-C lowering was associated with consistent results in total-C, ApoB, non-HDL-C and ApoB/ApoA-1 ratio and a positive trend for HDL-C, TG and Lp(a).

[6] = system: patients with primary hypercholesterolemia (heFH and non-FH) who are intolerant to statins; experiment: Example 3: safety (TEAEs, skeletal muscle-related events); conditions: in vivo
[7] = WK24, ITT analysis, listed as EZE
[8] = WK24, ITT analysis, listed as Ezetimibe
[9] = clinical data available at commencement of Example 3 study

O=C1[C@H](CC[C@H](O)c2ccc(F)cc2)[C@@H](c2ccc(O)cc2)N1c1ccc(F)cc1 [ezetimibe, reference compound]
total reduction of LDL-C levels [1]: 27% | Apo A-1 LS mean percent change from baseline ([2]; WK12, ITT analysis): LS mean: 3.9% | Apo B LS mean percent change from baseline ([2]; WK12, ITT analysis): LS mean: −11.6% | Fasting Triglycerides LS mean percent change from baseline ([2]; WK12, ITT analysis): LS mean: −9.4% | HDL-C LS mean percent change from baseline ([2]; WK12, ITT analysis): LS mean: 7.6% | LDL-C LS mean percent change from baseline ([2]; WK12, ITT analysis): LS mean: −15.6% | Lp(a) LS mean percent change from baseline ([2]; WK12, ITT analysis): LS mean: −4.5% | Non-HDL-C LS mean percent change from baseline ([2]; WK12, ITT analysis): LS mean: −15.8% | Total Cholesterol LS mean percent change from baseline ([2]; WK12, ITT analysis): LS mean: −11.6% | LDL-C LS mean percent change from baseline ([2]; WK12, on-treatment analysis): LS mean: −18.0% | Apo A-1 LS mean percent change from baseline ([2]; WK24, ITT analysis): LS mean: 2.9% | Fasting Triglycerides LS mean percent change from baseline ([2]; WK24, ITT analysis): LS mean: −3.5% | HDL-C LS mean percent change from baseline ([2]; WK24, ITT analysis): LS mean: 6.8% | LDL-C LS mean percent change from baseline ([2]; WK24, ITT analysis): −14.6% | Proportion with LDL-C <70 mg/dL ([2]; WK24, ITT analysis): Proportion = 0.8% | Proportion with Very High CV LDL-C <70 mg/dL OR Moderate/High CV LDL-C <100 mg/dL ([2]; WK24, ITT analysis): Proportion = 4.1% | Total Cholesterol LS mean percent change from baseline ([2]; WK24, ITT analysis): LS mean: −10.9% | Apo B LS mean percent change from baseline [2, 7]: −11.2* % | LDL-C LS mean percent change from baseline [2, 7]: -14.6% | Lp(a) LS mean percent change from baseline [2, 7]: −7.3* % | Non-HDL-C LS mean percent change from baseline [2, 7]: −14.6* % | Apo B LS mean percent change from baseline [2, 8]: LS mean: −11.2% | LDL-C LS mean percent change from baseline [2, 8]: LS mean: −14.6% | Lp(a) LS mean percent change from baseline [2, 8]: LS mean: −7.3% | Non-HDL-C LS mean percent change from baseline [2, 8]: LS mean: −14.6% | Apo B LS mean percent change from baseline ([2]; WK24, on-treatment analysis): LS mean: −14.4% | LDL-C LS mean percent change from baseline ([2]; WK24, on-treatment analysis): LS mean: −17.1% | Non-HDL-C LS mean percent change from baseline ([2]; WK24, on-treatment analysis): LS mean: −17.1% | Proportion with LDL-C <70 mg/dL ([2]; WK24, on-treatment analysis): Proportion = 0.8% | Proportion with Very High CV LDL-C <70 mg/dL OR Moderate/High CV LDL-C <100 mg/dL ([2]; WK24, on-treatment analysis): Proportion = 4.2% | patients who reached LDL-C goal at week 24 [2]: 4.4% | LS mean LDL-C value at week 24 [2]: 159.9 mg/dL | change in LDL-C level from baseline [2]: -33 mg/dL

mAb316P: human anti-PCSK9 antibody; heavy chain SEQ ID NO:5, light chain SEQ ID NO:9; HCVR SEQ ID NO:1, LCVR SEQ ID NO:6
reductions from baseline in LDL-C ([3]; Phase 1 studies, up to (maximum)): up to 60% | tolerability ([3]; healthy subjects and patients, all doses): generally well tolerated at all doses | Apo A-1 Diff mAb316P vs ezetimibe ([2]; WK12, ITT analysis): Diff: 1.6% | Apo A-1 LS mean percent change from baseline ([2]; WK12, ITT analysis): LS mean: 5.5% | Apo B Diff mAb316P vs ezetimibe ([2]; WK12, ITT analysis): Diff: −24.5% | Apo B LS mean percent change from baseline ([2]; WK12, ITT analysis): LS mean: −36.1% | Fasting Triglycerides Diff mAb316P vs ezetimibe ([2]; WK12, ITT analysis): Diff: 1.3% | Fasting Triglycerides LS mean percent change from baseline ([2]; WK12, ITT analysis): LS mean: −8.1% | HDL-C Diff mAb316P vs ezetimibe ([2]; WK12, ITT analysis): Diff: 1.4% | HDL-C LS mean percent change from baseline ([2]; WK12, ITT analysis): LS mean: 9.0% | LDL-C Diff mAb316P vs ezetimibe ([2]; WK12, ITT analysis): Diff: −31.5% | LDL-C LS mean percent change from baseline ([2]; WK12, ITT analysis): LS mean: −47.0% | Lp(a) Diff mAb316P vs ezetimibe ([2]; WK12, ITT analysis): Diff: −17.2% | Lp(a) LS mean percent change from baseline ([2]; WK12, ITT analysis): LS mean: −21.7% | Non-HDL-C Diff mAb316P vs ezetimibe ([2]; WK12, ITT analysis): Diff: −25.7% | Non-HDL-C LS mean percent change from baseline ([2]; WK12, ITT analysis): LS mean: −25.7% | Total Cholesterol Diff mAb316P vs ezetimibe ([2]; WK12, ITT analysis): Diff: −21.1% | Total Cholesterol LS mean percent change from baseline ([2]; WK12, ITT analysis): LS mean: −32.7% | LDL-C Diff mAb316P vs ezetimibe ([2]; WK12, on-treatment analysis): Diff: −33.1% | LDL-C LS mean percent change from baseline ([2]; WK12, on-treatment analysis): LS mean: −51.2% | Apo A-1 Diff mAb316P vs ezetimibe ([2]; WK24, ITT analysis): Diff: 1.9% | Apo A-1 LS mean percent change from baseline ([2]; WK24, ITT analysis): LS mean: 4.8% | Fasting Triglycerides Diff mAb316P vs ezetimibe ([2]; WK24, ITT analysis): Diff: −5.6% | Fasting Triglycerides LS mean percent change from baseline ([2]; WK24, ITT analysis): LS mean: −9.2% | HDL-C Diff mAb316P vs ezetimibe ([2]; WK24, ITT analysis): Diff: 0.9% | HDL-C LS mean percent change from baseline ([2]; WK24, ITT analysis): LS mean: 7.7% | Proportion with LDL-C <70 mg/dL ([2]; WK24, ITT analysis): Proportion = 32.5% | Proportion with Very High CV LDL-C <70 mg/dL OR Moderate/High CV LDL-C <100 mg/dL ([2]; WK24, ITT analysis): Proportion = 41.3% | Total Cholesterol Diff mAb316P vs ezetimibe ([2]; WK24, ITT analysis): Diff: −20.8% | Total Cholesterol LS mean percent change from baseline ([2]; WK24, ITT analysis): LS mean: −31.8% | Apo B Diff mAb316P vs ezetimibe ([2]; WK24, on-treatment analysis): Diff: −28.2% | Apo B LS mean percent change from baseline ([2]; WK24, on-treatment analysis): LS mean: −42.6% | LDL-C Diff mAb316P vs ezetimibe ([2]; WK24, on-treatment analysis): Diff: −35.1% | LDL-C LS mean percent change from baseline ([2]; WK24, on-treatment analysis): LS mean: −52.2% | Non-HDL-C Diff mAb316P vs ezetimibe ([2]; WK24, on-treatment analysis): Diff: −29.8% | Non-HDL-C LS mean percent change from baseline ([2]; WK24, on-treatment analysis): LS mean: −46.9% | Proportion with LDL-C <70 mg/dL ([2]; WK24, on-treatment analysis): Proportion = 39.0% | Proportion with Very High CV LDL-C <70 mg/dL OR Moderate/High CV LDL-C <100 mg/dL ([2]; WK24, on-treatment analysis): Proportion = 50.4% | patients who reached LDL-C goal at week 24 [2]: 41.9% | LS mean LDL-C value at week 24 [2]: 108.5 mg/dL | change in LDL-C level from baseline [2]: -84 mg/dL | serum MAb316P Ctrough, mean (SD) ([4]; Week 4, non-uptitrated (n = 32)): 5784.7 (2456.4) ng/mL | serum MAb316P Ctrough, mean (SD) ([4]; Week 4, uptitrated at Week 12 (n = 14)): 4533.9 (3996.5) ng/mL | serum MAb316P Ctrough, mean (SD) ([4]; Week 12, non-uptitrated (n = 32)): 5979.0 (2780.3) ng/mL | serum MAb316P Ctrough, mean (SD) ([4]; Week 12, uptitrated at Week 12 (n = 14)): 5702.9 (4816.4) ng/mL | serum MAb316P Ctrough, mean (SD) ([4]; Week 24, non-uptitrated, 75 mg Q2W (n = 32)): 6991.4 (4418.4) ng/mL | serum MAb316P Ctrough, mean (SD) ([4]; Week 24, uptitrated to 150 mg Q2W at Week 12 (n = 14)): 14772.2 (10201.7) ng/mL | change of serum mAb316P levels after uptitration ([4]; patients uptitrated at Week 12 (75 to 150 mg Q2W)): approximately doubled | LDL-C lowering effect [5, 9]: significant LDL-C lowering effect | tolerability [5, 9]: generally well-tolerated | serum total concentrations of mAb316P during the 8-week follow-up period ([5]; preliminary PK data from Phase 2 studies): still detectable, but at very low levels | patients positively adjudicated for non-fatal MI [6]: one (0.8%) patient (%)
